pIC50: −log10 of the molar value. Structures can show the parent of a compound that is named as a salt.

Sequence of HSET full length protein (Q9BW19 whole entry): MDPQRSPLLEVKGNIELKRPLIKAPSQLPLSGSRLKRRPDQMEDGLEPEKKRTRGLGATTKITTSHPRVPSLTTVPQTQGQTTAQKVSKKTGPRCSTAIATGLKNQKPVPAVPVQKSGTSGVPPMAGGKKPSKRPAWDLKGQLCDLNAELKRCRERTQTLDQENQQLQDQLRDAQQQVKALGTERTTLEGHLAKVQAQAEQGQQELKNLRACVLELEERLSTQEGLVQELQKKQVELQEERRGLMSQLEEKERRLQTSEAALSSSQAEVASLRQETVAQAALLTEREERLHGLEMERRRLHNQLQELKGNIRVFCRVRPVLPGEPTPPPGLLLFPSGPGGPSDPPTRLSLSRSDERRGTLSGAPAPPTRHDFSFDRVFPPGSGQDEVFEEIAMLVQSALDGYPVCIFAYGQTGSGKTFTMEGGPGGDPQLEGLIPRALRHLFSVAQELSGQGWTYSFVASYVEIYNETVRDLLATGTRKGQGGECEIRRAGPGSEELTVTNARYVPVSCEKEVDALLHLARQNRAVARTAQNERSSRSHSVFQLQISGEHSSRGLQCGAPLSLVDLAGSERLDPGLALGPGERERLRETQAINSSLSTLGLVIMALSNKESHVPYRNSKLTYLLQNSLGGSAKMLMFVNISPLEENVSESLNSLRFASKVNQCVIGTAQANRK

In the assay the target is HSET full length protein (Homo sapiens (Human), UniProt Q9BW19). Put plainly: HSET ADP-Glo Assay S - 3 μM ATP. The format is biochemical. Particulars: 5 nM HSET, 70 μg/mL microtubule, 80 min at rt, read-out: COMBINED HSET ADP GLO IC50. The method in brief:
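ADP-Glo luminescence read-out: ATPase reaction at 3 μM ATP, 80 min at room temperature, after a 10 min compound preincubation. Enzyme was full-length human HSET at 5 nM, stimulated by 70 μg/mL paclitaxel-stabilised bovine microtubules in HEPES pH 6.8 buffer with MgCl2, EGTA, Triton X-100 and DTT.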
For the compound `CCCOC(=O)c1sc(N(C)C(=O)CCNC(=O)c2cccc(-c3noc(C)n3)c2)nc1C` [Example 121, Propyl-4-methyl-2-(N-methyl-3-(3-(5-methyl-1,2,4-oxadiazol-3-yl)benzamido)propanamido)thiazole-5-carboxylate], the pIC50 is 7.44.
With `Cc1nc(-c2cccc(C(=O)NCCC(=O)Nc3nc(C)c(C(=O)OC4CCCC4)s3)c2)no1` [Example 122, Cyclopentyl-4-methyl-2-(3-(3-(5-methyl-1,2,4-oxadiazol-3-yl)benzamido)propanamido)thiazole-5-carboxylate] the figure was 7.57.
To `CCCCCCOC(=O)c1sc(NC(=O)CCNC(=O)c2cccc(-c3noc(C)n3)c2)nc1C` [Example 123, Hexyl-4-methyl-2-(3-(3-(5-methyl-1,2,4-oxadiazol-3-yl)benzamido)propanamido)thiazole-5-carboxylate] belongs 8.05; to `Cc1nc(-c2cccc(C(=O)NCCC(=O)Nc3nc(C)c(C(=O)OC4CCCCC4)s3)c2)no1` [Example 124, Cyclohexyl-4-methyl-2-(3-(3-(5-methyl-1,2,4-oxadiazol-3-yl)benzamido)propanamido)thiazole-5-carboxylate], 7.85; to `Cc1nc(-c2cccc(C(=O)NCCC(=O)Nc3nc(C)c(C(=O)OCCCCN)s3)c2)no1` [Example 125, 4-aminobutyl 4-methyl-2-(3-(3-(5-methyl-1,2,4-oxadiazol-3-yl)benzamido)propanamido)thiazole-5-carboxylate hydrochloride], 5.25.
With `COc1ccc(CCCOC(=O)c2sc(NC(=O)CCNC(=O)c3cccc(-c4noc(C)n4)c3)nc2C)cc1` [Example 126, 3-(4-methoxyphenyl)propyl 4-methyl-2-(3-(3-(5-methyl-1,2,4-oxadiazol-3-yl)benzamido)propanamido)thiazole-5-carboxylate] the figure was 7.41; with `COCCOCCCCOC(=O)c1sc(NC(=O)CCNC(=O)c2cccc(-c3noc(C)n3)c2)nc1C` [Example 127, 4-(2-methoxyethoxy)butyl 4-methyl-2-(3-(3-(5-methyl-1,2,4-oxadiazol-3-yl)benzamido)propanamido)thiazole-5-carboxylate], 7.26; with `COC(=O)c1cc(NC(=O)CCNC(=O)c2cccc(-c3noc(C)n3)c2)nn1C` [Example 128, Methyl-2-methyl-5-[3-[[3-(5-methyl-1,2,4-oxadiazol-3-yl)benzoyl]amino]propanoylamino]pyrazole-3-carboxylate], 4.85.
Regarding `CCCC(C)c1sc(NC(=O)CCNC(=O)c2cccc(-c3noc(C)n3)c2)nc1C` (centres unmarked) [Example 129, 3-(5-methyl-1,2,4-oxadiazol-3-yl)-N-(3-((4-methyl-5-(pentan-2-yl)thiazol-2-yl)amino)-3-oxopropyl)benzamide], the pIC50 is 5.95.
Consider `CC(=O)NCCCCOC(=O)c1sc(NC(=O)CCNC(=O)c2cccc(-c3noc(C)n3)c2)nc1C` [Example 130, 4-Acetamidobutyl 4-methyl-2-(3-(3-(5-methyl-1,2,4-oxadiazol-3-yl)benzamido)propanamido)thiazole-5-carboxylate], for which the pIC50 is 4.81.
Regarding `CCCOC(=O)c1cc(NC(=O)CCNc2nccc3ccc(-c4noc(C)n4)cc23)nn1C` [Example 131, Propyl-1-methyl-3-(3-((7-(5-methyl-1,2,4-oxadiazol-3-yl)isoquinolin-1-yl)amino)propanamido)-1 H-pyrazole-5-carboxylate formate], the pIC50 is 7.80.
With `Cc1nc(-c2cccc(C(=O)NCCC(=O)Nc3nc(C)c(C(=O)OC(C)(C)C)s3)c2)no1` [Example 132, Tert-butyl-4-methyl-2-(3-(3-(5-methyl-1,2,4-oxadiazol-3-yl)benzamido)propanamido)thiazole-5-carboxylate] the figure was 8.00; with `CCOC(=O)c1sc(NC(=O)CCNC(=O)c2cccc(-c3noc(C)n3)c2)cc1C` [Example 133, Ethyl-3-methyl-5-[3-[[3-(5-methyl-1,2,4-oxadiazol-3-yl)benzoyl]amino]propanoylamino]thiophene-2-carboxylate], 7.03; with `CCCN(C(=O)CCNC(=O)c1cccc(-c2noc(C)n2)c1)c1nc(C)c(C(=O)OCC)s1` [Example 134, Ethyl-4-methyl-2-(3-(3-(5-methyl-1,2,4-oxadiazol-3-yl)benzamido)-N-propylpropanamido)thiazole-5-carboxylate], 5.88.
With `CCOC(=O)c1cc(NC(=O)CCNc2nccc3ccc(-c4noc(C)n4)cc23)n[nH]1` [Example 135, Ethyl-3-(3-((7-(5-methyl-1,2,4-oxadiazol-3-yl)isoquinolin-1-yl)amino)propanamido)-1 H-pyrazole-5-carboxylate] the figure was 6.37.
With `Cc1nc(-c2cc(C(=O)NCCC(=O)Nc3nc(C)c(C(=O)OCCCCCCO)s3)cc(C(F)(F)F)c2)no1` [Example 136, 6-Hydroxyhexyl 4-methyl-2-(3-(3-(5-methyl-1,2,4-oxadiazol-3-yl)-5-(trifluoromethyl)benzamido)propanamido)thiazole-5-carboxylate] the figure was 6.13.
For `CCCCc1sc(C(=O)NCCNc2nccc3ccc(-c4noc(C)n4)cc23)nc1C` [Example 137, 5-Butyl-4-methyl-N-(2-((7-(5-methyl-1,2,4-oxadiazol-3-yl)isoquinolin-1-yl)amino)ethyl)thiazole-2-carboxamide formate], the pIC50 is 6.11.
To `Cc1nc(-c2ccc3ccnc(NCCC(=O)Nc4cc(C(=O)OC5CCCC5)n(C)n4)c3c2)no1` [Example 138, Cyclopentyl-1-methyl-3-(3-((7-(5-methyl-1,2,4-oxadiazol-3-yl)isoquinolin-1-yl)amino)propanamido)-1 H-pyrazole-5-carboxylate] belongs 7.96.
To `CCOC(=O)c1sc(C(=O)NCCNC(=O)c2cccc(-c3noc(CC)n3)c2)nc1C` [Example 140, Ethyl-2-((2-(3-(5-ethyl-1,2,4-oxadiazol-3-yl)benzamido)ethyl)carbamoyl)-4-methylthiazole-5-carboxylate] belongs 5.30; to `CCOC(=O)c1sc(C(=O)NCCNC(=O)c2cccc(-c3noc(C)n3)c2)nc1C` [Example 141, Ethyl-4-methyl-2-((2-(3-(5-methyl-1,2,4-oxadiazol-3-yl)benzamido)ethyl)carbamoyl)thiazole-5-carboxylate], 6.39; to `CCOC(=O)c1sc(NC(=O)C[C@@H](C)NC(=O)c2cccc(-c3noc(C)n3)c2)nc1C` [Example 142, Ethyl-(R)-4-methyl-2-(3-(3-(5-methyl-1,2,4-oxadiazol-3-yl)benzamido)butanamido)thiazole-5-carboxylate], 6.54.
With `CCOC(=O)c1sc(NC(=O)C[C@H](C)NC(=O)c2cccc(-c3noc(C)n3)c2)nc1C` [Example 143, Ethyl-(S)-4-methyl-2-(3-(3-(5-methyl-1,2,4-oxadiazol-3-yl)benzamido)butanamido)thiazole-5-carboxylate] the figure was 7.21; with `CCCOC(=O)c1sc(NC(=O)CC2(NC(=O)c3cc(Cl)cc(-c4noc(C)n4)c3)CCN(C)CC2)nc1C` [Example 144, Propyl-2-(2-(4-(3-chloro-5-(5-methyl-1,2,4-oxadiazol-3-yl)benzamido)-1-methylpiperidin-4-yl)acetamido)-4-methylthiazole-5-carboxylate], 5.04.

The values above are taken from US20250084074A1, “SUBSTITUTED HETEROCYCLES AS HSET INHIBITORS” (MERCK PATENT GMBH, priority 2022, published 2025).
